Reference: ChEMBL document CHEMBL4699440, “Comprehensive review on the anti-bacterial activity of 1,2,3-triazole hybrids” (Eur J Med Chem, 2019)
≈ marks a conversion by molar mass, not a printed value.

Assays:
[1] = test system: Bacillus cereus; test: Antibacterial activity against Bacillus cereus ATCC 6630 incubated for 24 hrs; format: functional
[2] = test system: Pseudomonas fluorescens; test: Antibacterial activity against Pseudomonas fluorescens NCIM 2173 incubated for 24 hrs; format: functional
[3] = test system: Escherichia coli; test: Antibacterial activity against Escherichia coli ATCC 25922 incubated for 24 hrs by broth dilution method; format: functional
[4] = test system: Bacillus cereus; test: Antibacterial activity against Bacillus cereus RCMB-010067 assessed as diameter of inhibition zone at 5 mg/ml by diffusion technique; format: functional; conditions: read-out: IZ
[5] = test system: Staphylococcus aureus; test: Antibacterial activity against Staphylococcus aureus ATCC 29737 incubated for 24 hrs; format: functional
[6] = test system: Micrococcus luteus; test: Antibacterial activity against Micrococcus Luteus ATCC 398 incubated for 24 hrs; format: functional
[7] = test system: Proteus vulgaris; test: Antibacterial activity against Proteus vulgaris ATCC 3851 incubated for 24 hrs by broth dilution method; format: functional
[8] = test system: Staphylococcus aureus; test: Antibacterial activity against Staphylococcus aureus ATCC 6538p incubated for 24 hrs by broth dilution method; format: functional
[9] = test system: Salmonella typhimurium; test: Antibacterial activity against Salmonella typhimurium ATCC 14028 incubated for 24 hrs by broth dilution method; format: functional, Salmonella enterica subsp. enterica serovar Typhimurium; conditions: Salmonella enterica
[10] = test system: Staphylococcus aureus; test: Antibacterial activity against Staphylococcus aureus RCMB-010010 assessed as diameter of inhibition zone at 5 mg/ml by diffusion technique; format: functional; conditions: read-out: IZ
[11] = test system: Sphingomonas paucimobilis; test: Antibacterial activity against Flavobacterium devorans ATCC 10829 incubated for 24 hrs; format: functional
[12] = test system: Bacillus spizizenii; test: Antibacterial activity against Bacillus subtilis ATCC 6633 incubated for 24 hrs by broth dilution method; format: functional
[13] = test system: Micrococcus luteus; test: Antibacterial activity against Micrococcus luteus IFC 12708 incubated for 24 hrs by broth dilution method; format: functional
[14] = test system: Pseudomonas aeruginosa; test: Antibacterial activity against Pseudomonas aeruginosa MTCC 424 incubated for 24 hrs by two-fold serial dilution method; format: functional
[15] = test system: Enterococcus faecium; test: Antibacterial activity against Enterococcus faecium 13-7; format: functional
[16] = test system: Bacillus cereus; test: Antibacterial activity against Bacillus cereus MTCC 430 incubated for 24 hrs by macrodilution tube method; format: functional
[17] = test system: Klebsiella aerogenes; test: Antibacterial activity against Enterobacter aerogenes ATCC 13048; format: functional
[18] = test system: Bacillus cereus; test: Antibacterial activity against Bacillus cereus by agar dilution method; format: functional
[19] = test system: Enterococcus faecalis; test: Antibacterial activity against Enterococcus faecalis ATCC 29212 incubated for 24 hrs by microdilution method; format: functional
[20] = test system: Streptococcus pneumoniae; test: Antibacterial activity against Streptococcus pneumoniae RCMB 010010 by broth dilution method; format: functional
[21] = test system: Staphylococcus aureus; test: Antibacterial activity against methicillin-resistant Staphylococcus aureus ATCC 33591; format: functional
[22] = test system: Staphylococcus epidermidis; test: Antibacterial activity against Staphylococcus epidermidis MTCC 6880 by serial dilution method; format: functional
[23] = test system: Pseudomonas aeruginosa; test: Antibacterial activity against Pseudomonas aeruginosa MTCC 424 by serial dilution method; format: functional
[24] = test system: Klebsiella pneumoniae; test: Antibacterial activity against Klebsiella pneumoniae ATCC 700603; format: functional
[25] = test system: Pseudomonas aeruginosa; test: Antibacterial activity against Pseudomonas aeruginosa ATCC 12454 incubated for 24 hrs by tube dilution method; format: functional
[26] = test system: Escherichia coli; test: Antibacterial activity against Escherichia coli MTCC 1652 incubated for […] by two-fold serial dilution method; format: functional; conditions: time 24 hrs
[27] = test system: Staphylococcus aureus; test: Antibacterial activity against Staphylococcus aureus by agar dilution method; format: functional
[28] = test system: Staphylococcus aureus; test: Antibacterial activity against Staphylococcus aureus 209P JC1 incubated for 20 hrs by agar dilution method; format: functional
[29] = test system: Pseudomonas aeruginosa; test: Antibacterial activity against Pseudomonas aeruginosa ATCC 27853; format: functional
[30] = test system: Staphylococcus aureus; test: Antibacterial activity against methicillin-sensitive Staphylococcus aureus ATCC 29213; format: functional
[31] = test system: Bacillus subtilis; test: Antibacterial activity against Bacillus subtilis MTCC 441 incubated for 24 hrs by microdilution method; format: functional
[32] = test system: Pseudomonas aeruginosa; test: Antibacterial activity against Pseudomonas aeruginosa 12 incubated for 20 hrs by agar dilution method; format: functional
[33] = test system: Staphylococcus epidermidis; test: Antibacterial activity against Staphylococcus epidermidis incubated for 24 hrs by microdilution method; format: functional
[34] = test system: Stenotrophomonas maltophilia; test: Antibacterial activity against Stenotrophomonas maltophilia ATCC 13636; format: functional
[35] = test system: Staphylococcus aureus; test: Antibacterial activity against Staphylococcus aureus ATCC 25923 incubated for 24 hrs by tube dilution method; format: functional
[36] = test system: Proteus mirabilis; test: Antibacterial activity against Proteus mirabilis ATCC 35659 incubated for 24 hrs by microdilution method; format: functional
[37] = test system: Bacillus subtilis; test: Antibacterial activity against Bacillus subtilis RCMB 010067 by broth dilution method; format: functional
[38] = test system: Serratia marcescens; test: Antibacterial activity against Serratia marcescens ATCC 21074; format: functional
[39] = test system: Morganella morganii; test: Antibacterial activity against Morganella morganii ATCC 25830; format: functional
[40] = test system: Pseudomonas aeruginosa; test: Antibacterial activity against Pseudomonas aeruginosa RCMB 010043 by broth dilution method; format: functional
[41] = test system: Staphylococcus aureus; test: Antibacterial activity against Staphylococcus aureus ATCC 25923 incubated for 24 hrs by microdilution method; format: functional
[42] = test system: Pseudomonas aeruginosa; test: Antibacterial activity against Pseudomonas aeruginosa MTCC 741 incubated for 24 hrs by microdilution method; format: functional
[43] = test system: Proteus mirabilis; test: Antibacterial activity against Proteus mirabilis 13-1; format: functional
[44] = test system: Escherichia coli; test: Antibacterial activity against Escherichia coli ATCC 25922 incubated for 24 hrs by tube dilution method; format: functional
[45] = test system: Citrobacter freundii; test: Antibacterial activity against Citrobacter freundii ATCC 43864; format: functional
[46] = test system: Acinetobacter calcoaceticus; test: Antibacterial activity against Acinetobacter calcoaceticus ATCC 19606; format: functional
[47] = test system: Staphylococcus aureus; test: Antibacterial activity against Staphylococcus aureus MTCC 96 incubated for 24 hrs by microdilution method; format: functional
[48] = test system: Klebsiella pneumoniae; test: Antibacterial activity against Klebsiella pneumoniae ATCC 15380 incubated for 24 hrs by tube dilution method; format: functional
[49] = test system: Klebsiella pneumoniae; test: Antibacterial activity against Klebsiella pneumoniae 7; format: functional
[50] = test system: Bacillus cereus; test: Antibacterial activity against Bacillus cereus ATCC 10876 incubated for 24 hrs by microdilution method; format: functional
[51] = test system: Streptococcus pyogenes; test: Antibacterial activity against Streptococcus pyogenes ATCC 35552 incubated for 24 hrs by tube dilution method; format: functional
[52] = test system: Staphylococcus epidermidis; test: Antibacterial activity against methicillin-resistant Staphylococcus epidermidis 13-3; format: functional
[53] = test system: Klebsiella pneumoniae; test: Antibacterial activity against Klebsiella pneumoniae MTCC 618 incubated for 24 hrs by microdilution method; format: functional
[54] = test system: Staphylococcus aureus; test: Antibacterial activity against Staphylococcus aureus RCMB 010025 by broth dilution method; format: functional
[55] = test system: Pseudomonas aeruginosa; test: Antibacterial activity against Pseudomonas aeruginosa ATCC 27853 incubated for 24 hrs by microdilution method; format: functional
[56] = test system: Bacillus subtilis; test: Antibacterial activity against Bacillus subtilis MTCC 441 by serial dilution method; format: functional
[57] = test system: Enterococcus faecium; test: Antibacterial activity against Enterococcus faecium ATCC 700221; format: functional
[58] = test system: Escherichia coli; test: Antibacterial activity against Escherichia coli NIHJ JC2 incubated for 20 hrs by agar dilution method; format: functional
[59] = test system: Providencia rettgeri; test: Antibacterial activity against Providencia rettgeri ATCC 31052; format: functional
[60] = test system: Proteus vulgaris; test: Antibacterial activity against Proteus vulgaris ATCC 29905; format: functional
[61] = test system: Escherichia coli; test: Antibacterial activity against Escherichia coli MTCC […] by serial dilution method; format: functional
[62] = test system: Escherichia coli; test: Antibacterial activity against Escherichia coli RCMB 010052 by broth dilution method; format: functional
[63] = test system: Bacillus subtilis; test: Antibacterial activity against Bacillus subtilis MTCC 441 incubated for 24 hrs by two-fold serial dilution method; format: functional
[64] = test system: Staphylococcus epidermidis; test: Antibacterial activity against methicillin-sensitive Staphylococcus epidermidis ATCC 12228; format: functional
[65] = test system: Klebsiella pneumoniae; test: Antibacterial activity against Klebsiella pneumonia RCMB 010058 by broth dilution method; format: functional

CC1(C)S[C@@H]2[C@H](NC(=O)[C@H](N)c3ccccc3)C(=O)N2[C@H]1C(=O)O [AMPICILLIN]
MIC [1]: 2 µg/mL (≈ 5.72 µM) | MIC [2]: 2 µg/mL (≈ 5.72 µM) | MIC [3]: 1.56 µg/mL (≈ 4.46 µM) | zone of inhibition at 5000 µg/mL [4]: 23.8 mm | MIC [5]: 2 µg/mL (≈ 5.72 µM) | MIC [6]: 2 µg/mL (≈ 5.72 µM) | MIC [7]: 1.56 µg/mL (≈ 4.46 µM) | MIC [8]: 1.56 µg/mL (≈ 4.46 µM) | MIC [9]: 1.56 µg/mL (≈ 4.46 µM) | zone of inhibition at 5000 µg/mL [10]: 32.4 mm | MIC [11]: 2 µg/mL (≈ 5.72 µM) | MIC [12]: 1.56 µg/mL (≈ 4.46 µM) | MIC [13]: 1.56 µg/mL (≈ 4.46 µM)

O=C(O)c1cn(C2CC2)c2cc(N3CCNCC3)c(F)cc2c1=O [CIPROFLOXACIN]
MIC [14]: 0.0377 µg/mL (≈ 0.114 µM) | MIC [15]: > 128 µg/mL | MIC [16]: 6.25 µg/mL (≈ 18.9 µM) | MIC [17]: ≤ 0.03 µg/mL | MIC [18]: 2 µg/mL (≈ 6.04 µM) | MIC [19]: 1 µg/mL (≈ 3.02 µM) | MIC [20]: ≥ 5 µg/mL | MIC [21]: 0.03 µg/mL (≈ 0.0905 µM) | MIC [22]: 4.7 µM (≈ 1.56 µg/mL) | MIC [23]: 4.7 µM (≈ 1.56 µg/mL) | MIC [24]: 0.03 µg/mL (≈ 0.0905 µM) | MIC [25]: 5.5 µg/mL (≈ 16.6 µM) | MIC [26]: 37.7 µM (≈ 12.5 µg/mL) | MIC [27]: 2 µg/mL (≈ 6.04 µM) | MIC [28]: 0.0063 µg/mL (≈ 0.019 µM) | MIC [29]: 0.03 µg/mL (≈ 0.0905 µM) | MIC [30]: 0.03 µg/mL (≈ 0.0905 µM) | MIC [31]: 0.39 µg/mL (≈ 1.18 µM) | MIC [32]: 0.0063 µg/mL (≈ 0.019 µM) | MIC [33]: 0.39 µg/mL (≈ 1.18 µM) | MIC [34]: 0.03 µg/mL (≈ 0.0905 µM) | MIC [35]: 5.5 µg/mL (≈ 16.6 µM) | MIC [36]: 1 µg/mL (≈ 3.02 µM) | MIC [37]: ≥ 5 µg/mL | MIC [38]: 0.03 µg/mL (≈ 0.0905 µM) | MIC [39]: ≤ 0.03 µg/mL | MIC [40]: ≥ 5 µg/mL | MIC [41]: 1 µg/mL (≈ 3.02 µM) | MIC [42]: 0.39 µg/mL (≈ 1.18 µM) | MIC [43]: ≤ 0.03 µg/mL | MIC [44]: 5.5 µg/mL (≈ 16.6 µM) | MIC [45]: ≤ 0.03 µg/mL | MIC [46]: 0.03 µg/mL (≈ 0.0905 µM) | MIC [47]: 0.39 µg/mL (≈ 1.18 µM) | MIC [48]: 5.5 µg/mL (≈ 16.6 µM) | MIC [49]: ≤ 0.03 µg/mL | MIC [50]: 1 µg/mL (≈ 3.02 µM) | MIC [51]: 5.5 µg/mL (≈ 16.6 µM) | MIC [52]: 0.03 µg/mL (≈ 0.0905 µM) | MIC [53]: 0.39 µg/mL (≈ 1.18 µM) | MIC [54]: ≥ 5 µg/mL | MIC [55]: 1 µg/mL (≈ 3.02 µM) | MIC [56]: 4.7 µM (≈ 1.56 µg/mL) | MIC [57]: > 128 µg/mL | MIC [58]: 0.0063 µg/mL (≈ 0.019 µM) | MIC [59]: ≤ 0.03 µg/mL | MIC [60]: ≤ 0.03 µg/mL | MIC [61]: 4.7 µM (≈ 1.56 µg/mL) | MIC [62]: ≥ 5 µg/mL | MIC [63]: 0.0377 µg/mL (≈ 0.114 µM) | MIC [64]: 0.03 µg/mL (≈ 0.0905 µM) | MIC [65]: ≥ 5 µg/mL
